Results reported in US6339045B1, “N-(unsubstituted or substituted)-4-substituted-6-(unsubstituted or substituted)phenoxy-2-pyridinecarboxamides or thiocarboxamides, processes for producing the same, and herbicides” (Kureha Kagaku Kogyo Kabushiki Kaisha, priority 1995, dated 2002).

What was measured:
Experiment in all cases: Herbicidal effect by foliage and soil treatment
Format in all cases: in vivo
Conditions in all cases: 10 g ai/10a, evaluated after 14 days
[1] = tested on: common chickweed (Stellaria media)
Procedure, shortened: (§1)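 Potted seedlings at cotyledon-to-bifoliate stage were sprayed with compound in Tween 20/water at a predetermined rate and grown in a greenhouse at 19 to 25° C. Growth was rated against untreated plants after 14 days.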

[2] = tested on: wild chamomile (Matricaria chamomilla)
Procedure, shortened: as §1

[3] = tested on: kediock (Sinapis arvensis)
Procedure, shortened: as §1

[4] = tested on: sicklepod (Cassia obtusifolia)
Procedure, shortened: as §1

[5] = tested on: field bindweed (Convolvulus arvensis)
Procedure, shortened: as §1

[6] = tested on: ivyleafspeedwell (Veronica hederaefolia)
Procedure, shortened: as §1

[7] = tested on: cleavers (Galium aparine)
Procedure, shortened: as §1

[8] = tested on: velvetleaf (Abutilon theophrasti)
Procedure, shortened: as §1

[9] = tested on: redroot pigweed (Amaranthus retroflexus)
Procedure, shortened: as §1

[10] = tested on: common blackjack (Bidens pilosa)
Procedure, shortened: as §1

[11] = tested on: black nightshade (Solanum nigrum)
Procedure, shortened: as §1

SMILES	herbicidal activity rating, SM (Stellaria media) [1]	herbicidal activity rating, MC (Matricaria chamomilla) [2]	herbicidal activity rating, SA (Sinapis arvensis) [3]	herbicidal activity rating, CO (Cassia obtusifolia) [4]	herbicidal activity rating, CA (Convolvulus arvensis) [5]	herbicidal activity rating, VH (Veronica hederaefolia) [6]	herbicidal activity rating, GA (Galium aparine) [7]	herbicidal activity rating, AT (Abutilon theophrasti) [8]	herbicidal activity rating, AR (Amaranthus retroflexus) [9]	herbicidal activity rating, BP (Bidens pilosa) [10]	herbicidal activity rating, SN (Solanum nigrum) [11]
COc1cc(Oc2cccc(C(F)(F)F)c2)nc(C(=O)NCC#N)c1 [Compound I-84, N-{(2-cyano)methyl}-4-methoxy-6-{3-(trifluoromethyl)phenoxy}-2-pyridine carboxamide]	4 (percentage of weeds killed was not less than 60% and less than 80%)	2 (percentage of weeds killed was not less than 20% and less than 40%)	5 (percentage of weeds killed was not less than 80%)	5 (percentage of weeds killed was not less than 80%)	4 (percentage of weeds killed was not less than 60% and less than 80%)	5 (percentage of weeds killed was not less than 80%)	5 (percentage of weeds killed was not less than 80%)	5 (percentage of weeds killed was not less than 80%)	5 (percentage of weeds killed was not less than 80%)	5 (percentage of weeds killed was not less than 80%)	5 (percentage of weeds killed was not less than 80%)
COc1cc(Oc2cccc(C(F)(F)F)c2)nc(C(=O)NCC2CC2)c1 [Compound I-85]	5 (percentage of weeds killed was not less than 80%)	5 (percentage of weeds killed was not less than 80%)	5 (percentage of weeds killed was not less than 80%)	5 (percentage of weeds killed was not less than 80%)	4 (percentage of weeds killed was not less than 60% and less than 80%)	5 (percentage of weeds killed was not less than 80%)	5 (percentage of weeds killed was not less than 80%)	5 (percentage of weeds killed was not less than 80%)	5 (percentage of weeds killed was not less than 80%)	4 (percentage of weeds killed was not less than 60% and less than 80%)	5 (percentage of weeds killed was not less than 80%)
CCC(=O)CNC(=O)c1cc(OC)cc(Oc2cccc(C(F)(F)F)c2)n1 [Compound I-86, N-(2-oxobutyl)-4-methoxy-6-{3-(trifluoromethyl)phenoxy}-2-pyridine carboxamide]	5 (percentage of weeds killed was not less than 80%)	4 (percentage of weeds killed was not less than 60% and less than 80%)	5 (percentage of weeds killed was not less than 80%)	4 (percentage of weeds killed was not less than 60% and less than 80%)	3 (percentage of weeds killed was not less than 40% and less than 60%)	5 (percentage of weeds killed was not less than 80%)	5 (percentage of weeds killed was not less than 80%)	5 (percentage of weeds killed was not less than 80%)	5 (percentage of weeds killed was not less than 80%)	4 (percentage of weeds killed was not less than 60% and less than 80%)	5 (percentage of weeds killed was not less than 80%)
CCOCNC(=O)c1cc(OC)cc(Oc2cccc(C(F)(F)F)c2)n1 [Compound I-87, N-(ethoxymethyl)-4-methoxy-6-{3-(trifluoromethyl)phenoxy}-2-pyridine carboxamide]	5 (percentage of weeds killed was not less than 80%)	5 (percentage of weeds killed was not less than 80%)	5 (percentage of weeds killed was not less than 80%)	5 (percentage of weeds killed was not less than 80%)	5 (percentage of weeds killed was not less than 80%)	5 (percentage of weeds killed was not less than 80%)	5 (percentage of weeds killed was not less than 80%)	5 (percentage of weeds killed was not less than 80%)	5 (percentage of weeds killed was not less than 80%)	5 (percentage of weeds killed was not less than 80%)	5 (percentage of weeds killed was not less than 80%)
COc1cc(Oc2cccc(C(F)(F)F)c2)nc(C(=O)NC(OC)C(F)(F)F)c1 (stereo not shown) [Compound I-88, N-(1-methoxy-2,2,2-trifluoroethyl)-4-methoxy-6-{3-(trifluoromethyl)phenoxy}-2-pyridine carboxamide]	5 (percentage of weeds killed was not less than 80%)	2 (percentage of weeds killed was not less than 20% and less than 40%)	5 (percentage of weeds killed was not less than 80%)	5 (percentage of weeds killed was not less than 80%)	5 (percentage of weeds killed was not less than 80%)	5 (percentage of weeds killed was not less than 80%)	5 (percentage of weeds killed was not less than 80%)	5 (percentage of weeds killed was not less than 80%)	5 (percentage of weeds killed was not less than 80%)	3 (percentage of weeds killed was not less than 40% and less than 60%)	5 (percentage of weeds killed was not less than 80%)
COc1cc(Oc2cccc(C(F)(F)F)c2)nc(C(=O)NCCO)c1 [Compound I-89]	5 (percentage of weeds killed was not less than 80%)	3 (percentage of weeds killed was not less than 40% and less than 60%)	5 (percentage of weeds killed was not less than 80%)	5 (percentage of weeds killed was not less than 80%)	4 (percentage of weeds killed was not less than 60% and less than 80%)	5 (percentage of weeds killed was not less than 80%)	5 (percentage of weeds killed was not less than 80%)	4 (percentage of weeds killed was not less than 60% and less than 80%)	5 (percentage of weeds killed was not less than 80%)	5 (percentage of weeds killed was not less than 80%)	5 (percentage of weeds killed was not less than 80%)
COc1cc(Oc2cccc(C(F)(F)F)c2)nc(C(=O)NCCOCCF)c1 [Compound I-90]	5 (percentage of weeds killed was not less than 80%)	2 (percentage of weeds killed was not less than 20% and less than 40%)	5 (percentage of weeds killed was not less than 80%)	5 (percentage of weeds killed was not less than 80%)	4 (percentage of weeds killed was not less than 60% and less than 80%)	5 (percentage of weeds killed was not less than 80%)	5 (percentage of weeds killed was not less than 80%)	3 (percentage of weeds killed was not less than 40% and less than 60%)	5 (percentage of weeds killed was not less than 80%)	5 (percentage of weeds killed was not less than 80%)	5 (percentage of weeds killed was not less than 80%)
COc1cc(Oc2cccc(C(F)(F)F)c2)nc(C(=O)NCCSCCF)c1 [Compound I-92, N-{2-(2-fluoroethylmercapto)ethyl}-4-methoxy-6-{3-(trifluoromethyl)phenoxy}-2-pyridine carboxamide]	4 (percentage of weeds killed was not less than 60% and less than 80%)	3 (percentage of weeds killed was not less than 40% and less than 60%)	5 (percentage of weeds killed was not less than 80%)	5 (percentage of weeds killed was not less than 80%)	4 (percentage of weeds killed was not less than 60% and less than 80%)	5 (percentage of weeds killed was not less than 80%)	5 (percentage of weeds killed was not less than 80%)	3 (percentage of weeds killed was not less than 40% and less than 60%)	5 (percentage of weeds killed was not less than 80%)	4 (percentage of weeds killed was not less than 60% and less than 80%)	5 (percentage of weeds killed was not less than 80%)
